Data from PubChem BioAssay AID1918998 (Molecular Pharmacology Branch, DTP, NCI, 2023).
Several values for one entry are separate records, joined by “and”; a condition that tells them apart may be missing. Equal entries are not always repeated.

Test system: 521955-158-R2-J5-PDC complex spheroid growth
Assay: Anticancer human tumor 521955-158-R2-J5-PDC patient-derived pancreatic carcinoma cell line growth inhibition [AhR]
Conditions: for viability, T/C: stronger effect = lower value
Procedure, shortened: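 Complex tumor spheroids co-cultured with HUVEC and human MSC stroma; AhR antagonists tested in combination with standard-of-care and investigational agents. Top concentration at or near clinical Cmax (else 10 microM), half-log dilutions; growth expressed as percent test/control.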

[1] = curve of first compound, second compound 0.1 µM
[2] = curve of first compound, second compound 0.316 µM
[3] = curve of first compound, second compound 1 µM
[4] = curve of first compound, second compound 3.16 µM
[5] = curve of first compound, second compound 10 µM
[6] = second compound 0.1 µM, first compound 0.0316 µM
[7] = second compound 0.1 µM, first compound 0.1 µM
[8] = second compound 0.1 µM, first compound 0.316 µM
[9] = second compound 0.1 µM, first compound 1 µM
[10] = second compound 0.1 µM, first compound 3.16 µM
[11] = second compound 0.1 µM, first compound 10 µM
[12] = second compound 0.316 µM, first compound 0.0316 µM
[13] = second compound 0.316 µM, first compound 0.1 µM
[14] = second compound 0.316 µM, first compound 0.316 µM
[15] = second compound 0.316 µM, first compound 1 µM
[16] = second compound 0.316 µM, first compound 3.16 µM
[17] = second compound 0.316 µM, first compound 10 µM
[18] = second compound 1 µM, first compound 0.0316 µM
[19] = second compound 1 µM, first compound 0.1 µM
[20] = second compound 1 µM, first compound 0.316 µM
[21] = second compound 1 µM, first compound 1 µM
[22] = second compound 1 µM, first compound 3.16 µM
[23] = second compound 1 µM, first compound 10 µM
[24] = second compound 3.16 µM, first compound 0.0316 µM
[25] = second compound 3.16 µM, first compound 0.1 µM
[26] = second compound 3.16 µM, first compound 0.316 µM
[27] = second compound 3.16 µM, first compound 1 µM
[28] = second compound 3.16 µM, first compound 3.16 µM
[29] = second compound 3.16 µM, first compound 10 µM
[30] = second compound 10 µM, first compound 0.0316 µM
[31] = second compound 10 µM, first compound 0.1 µM
[32] = second compound 10 µM, first compound 0.316 µM
[33] = second compound 10 µM, first compound 1 µM
[34] = second compound 10 µM, first compound 3.16 µM
[35] = second compound 10 µM, first compound 10 µM
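For viability, T/C in this document: spheroids mix tumor cells with HUVEC endothelium and human MSC stroma; luminescence taken as viability surrogate after a week of drug exposure.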

| SMILES | IC50 [1] [µM] | IC50 [2] [µM] | IC50 [3] [µM] | IC50 [4] [µM] | IC50 [5] [µM] | viability, T/C [6] [%] | viability, T/C [7] [%] | viability, T/C [8] [%] | viability, T/C [9] [%] | viability, T/C [10] [%] | viability, T/C [11] [%] | viability, T/C [12] [%] | viability, T/C [13] [%] | viability, T/C [14] [%] | viability, T/C [15] [%] | viability, T/C [16] [%] | viability, T/C [17] [%] | viability, T/C [18] [%] | viability, T/C [19] [%] | viability, T/C [20] [%] | other results |
| --- | --- | --- | --- | --- | --- | --- | --- | --- | --- | --- | --- | --- | --- | --- | --- | --- | --- | --- | --- | --- | --- |
| COc1cc(C2c3cc4c(cc3C(OC3OC5COC(C)OC5C(O)C3O)C3COC(=O)C23)OCO4)cc(OC)c1O (configuration not stated) + CC(CO)NC(=O)c1cc(-c2ccc(Cl)cc2)nn(-c2cnn(C)c2)c1=O | 1.06 | 1.16 | 0.916 | 0.698 | 0.422 | 85 | 78 | 91.8 | 51.4 | 29.3 | 17 | 92.3 | 102 | 87.5 | 53.4 | 25.5 | 16.6 | 98 | 98.3 | 95.7 | viability, T/C [21]: 46.1%; viability, T/C [22]: 24.5%; viability, T/C [23]: 20.6%; viability, T/C [24]: 93.5%; viability, T/C [25]: 87.5%; viability, T/C [26]: 91.9%; viability, T/C [27]: 31.4%; viability, T/C [28]: 23.6%; viability, T/C [29]: 22.8%; viability, T/C [30]: 76.3%; viability, T/C [31]: 71.4%; viability, T/C [32]: 55.3%; viability, T/C [33]: 33.3%; viability, T/C [34]: 20.4%; viability, T/C [35]: 14.2% |
| Nc1ccccc1NC(=O)c1ccc(CNC(=O)OCc2cccnc2)cc1 + Cc1cncc(-c2nc(NCCc3c[nH]c4ccccc34)c3ncn(C(C)C)c3n2)c1 | 5.51 | 6.11 | 5.74 | 5.35 | 1.02 | 108 | 106 | 125 | 94.7 | 68.4 | 31.5 | 117 | 134 | 126 | 103 | 77.7 | 30.4 | 133 | 139 | 155 | viability, T/C [21]: 108%; viability, T/C [22]: 73.4%; viability, T/C [23]: 30.5%; viability, T/C [24]: 138%; viability, T/C [25]: 143%; viability, T/C [26]: 135%; viability, T/C [27]: 110%; viability, T/C [28]: 69.9%; viability, T/C [29]: 27.2%; viability, T/C [30]: 135%; viability, T/C [31]: 125%; viability, T/C [32]: 101%; viability, T/C [33]: 48.8%; viability, T/C [34]: 17.7%; viability, T/C [35]: 2.9% |
| COc1ccc([C@@H](O)c2cc(-c3ncnc4cc(N5CCOCC5)ccc34)c(F)cc2Cl)nn1 | – | – | – | – | – | – | – | – | – | – | – | – | – | – | – | – | – | – | – | – | viability, T/C (compound 0.0316 µM): 103% and 74.5% and 83%; viability, T/C (compound 0.1 µM): 98.5% and 84.4% and 87.8%; viability, T/C (compound 0.316 µM): 104% and 83.6% and 80.7%; viability, T/C (compound 1 µM): 100% and 66.2% and 81.5%; viability, T/C (compound 3.16 µM): 75.2% and 63.6% and 64.8%; viability, T/C (compound 10 µM): 52% and 43.6% and 40.8%; IC50 (curve of compound): > 10 µM and 6.7 µM and 6.43 µM |
